Results reported in US10150729B2, “Tranilast compositions and cocrystals” (NUFORMIX LIMITED, priority 2012, dated 2018).
Where two headings read alike, the source gives them in different places.

Tests used:
[1] = Dissolution study in purified water containing 2% SDS; type: physicochemical
Procedure: For poorly soluble drugs, such as tranilast, the rate of dissolution of the drug form used can have an impact on the overall absorption and thus bioavailability of the drug, especially for example, in the case of oral solid dosage or inhalation delivery methods. […] The dissolution experiment was carried out for tranilast and each of the cocrystal forms at a concentration equivalent to 0.4 mg tranilast/ml in purified water containing 2% SDS. This study compared the dissolution rates of the cocrystals versus pure crystalline tranilast, because of the extremely low solubility of crystalline tranilast in aqueous media, the surfactant sodium dodecyl sulfate (SDS) was added to the dissolution media to allow easier analytical detection. Samples were collected and analysed at 1, 5, 10 and 30 minute time points. The samples were analysed by HPLC using the method described in Table 10. FIG. 32 illustrates the dissolution profiles from a single dataset for each of the tranilast cocrystals alongside crystalline tranilast over the 30 minute time period in the aqueous 2% SDS solution. The dissolution data is corrected within error limits of the analytical method described (estimated at ±10%). […] Most of the cocrystals reach almost their maximum dissolution within the first minute.

[2] = Solution photostability study (UV irradiation, HPLC); details: dissolved in DMSO/MeOH/water; UV light; 24 hrs
Procedure: (§1) This study explored the photostability of the 1:1 tranilast nicotinamide cocrystal, the 1:1 tranilast saccharin cocrystal, the 1:1 tranilast gentisic acid cocrystal, the 1:1 salicylic acid cocrystal, the 1:1 tranilast urea cocrystal, the 1:1 tranilast 4-aminobenzoic acid cocrystal and the 1:1 tranilast 2,4-dihydroxybenzoic acid cocrystal once dissolved in solution and to compare these with the solution photostability of pure tranilast. A 1 mg sample of crystalline tranilast and the seven cocrystal forms were each weighed into a clear glass vial. Each sample was dissolved in a mixture of DMSO (200 μl), MeOH (600 μl) and water (600 μl). The vials were placed into a Vindon Scientific Photostability cabinet and irradiated with UV light (average Klux=18.2 (18.2 Lux/hour), average UV values=2.55 watts/minute, temperature=31.0-32.0° C.). The percentage of tranilast remaining in each sample, that had not undergone degradation into the cis-isomer, dimer or any other degradation product, was determined after 24 hours using HPLC.

[3] = Solid-state photostability study (UV irradiation, HPLC); details: UV light; for photostability in the solid-state: compared to pure crystalline tranilast
Procedure: A study was, therefore, carried out to determine the solid-state photostability of the 1:1 tranilast nicotinamide cocrystal, the 1:1 tranilast saccharin cocrystal, the 1:1 tranilast gentisic acid cocrystal, the 1:1 salicylic acid cocrystal, the 1:1 tranilast urea cocrystal, the 1:1 tranilast 4-aminobenzoic acid cocrystal and the 1:1 tranilast 2,4-dihydroxybenzoic acid cocrystal and to compare this with the solid state photostability of pure crystalline tranilast. A 1-2 mg sample of crystalline tranilast and the seven cocrystal forms were each weighed and spread over the bottom surface of a clear glass vial. The vials were placed into a Vindon Scientific Photostability cabinet and irradiated with UV light (average Klux=18.2 (18.2 Lux/hour), average UV values=2.55 watts/minute, temperature=31.0-32.0° C.). The percentage of tranilast remaining in each sample, that had not undergone degradation into the cis-isomer, dimer or any other degradation product, was determined at 3, 24 and 48 hours using HPLC.

[4] = Physical stability study of the cocrystal under accelerated conditions (40° C./75% RH), examined by XRPD; type: physicochemical
Procedure: X-Ray Powder Diffraction patterns at the required time points were collected on a PANalytical diffractometer using Cu Kα radiation (45 kV, 40 mA), θ-θ goniometer, focusing mirror, divergence slit (½″), soller slits at both incident and divergent beam (4 mm) and a PIXcel detector. The software used for data collection was X'Pert Data Collector, version 2.2f and the data was presented using X'Pert Data Viewer, version 1.2d. Instrument verification was performed using a silicon and benzoic acid standard, performed with the same batch program as listed below for sample analysis. Samples were run under ambient conditions and were analysed by transmission foil XRPD, using the powder as received. Approximately 2-5 mg of the sample was mounted on a 96 position sample plate supported on a polyimide (Kapton, 12.7 μm thickness) film. Plate height (Z) was set to 9 mm. Data was collected in the range 3-40° 2θ with a continuous scan (speed of 0.2° 2θ/s).
A stability study was carried out to examine the physical stability of the 1:1 tranilast nicotinamide cocrystal with respect to dissociation into its starting components over time under accelerated conditions. Approximately 1-2 mg of the 1:1 tranilast nicotinamide cocrystal was placed in seven clear glass vials. The glass vials were loosely sealed with plastic screw caps so as to provide a barrier to solid transfer but to still allow moisture equilibration with the outer environment. The vial head space above the sample was estimated to be >95% of the total vial volume. All seven samples were then placed on a tray and stored within a stability cabinet set at 40° C./75% RH. At every time point examined the XRPD pattern obtained was characteristic of the 1:1 tranilast nicotinamide cocrystal with no evidence of either of the starting materials, or any new peaks to indicate conversion to a different crystalline form. FIG. 7 illustrates the XRPD patterns obtained at the time points 0, three months and six months. FIG. 7 is an overlay of the XRPD patterns of the 1:1 tranilast nicotinamide cocrystal at those time points during a 6 month accelerated stability study at 40° C./75% RH.

[5] = buffer, 24 h
Procedure: as §1

| SMILES | percentage of tranilast remaining [2] [%] | percentage of tranilast remaining ([3]; 3 hrs) [%] | percentage of tranilast remaining ([3]; 24 hrs) [%] | percentage of tranilast remaining ([3]; 48 hrs) [%] | photostability in the solid-state [3] | other results |
| --- | --- | --- | --- | --- | --- | --- |
| COc1ccc(/C=C/C(=O)Nc2ccccc2C(=O)O)cc1OC [Crystalline Tranilast, 2-[[3-(3,4-dimethoxyphenyl)-1-oxo-2-propenyl]amino] benzoic acid, reference compound] | 66.2 | 98.9 | 99.8 | 99.7 |  | dissolved ([1]; after 1 minute, 0.4 mg tranilast/ml): about 5% |
| COc1ccc(/C=C/C(=O)Nc2ccccc2C(=O)O)cc1OC.NC(=O)c1cccnc1 [1:1 Tranilast Nicotinamide Cocrystal] | 80.2 | 99.3 | 99.9 | 99.9 | comparable photostability | XRPD Characterization ([4]; 1 month): cocrystal; XRPD Characterization ([4]; 1 week): cocrystal; XRPD Characterization ([4]; 2 months): cocrystal; XRPD Characterization ([4]; 2 week): cocrystal; XRPD Characterization ([4]; 3 months): cocrystal; XRPD Characterization ([4]; 3 week): cocrystal; XRPD Characterization ([4]; 6 months): cocrystal; physical stability with respect to dissociation or conversion to another crystalline form ([4]; six month period): stable; XRPD Characterization ([4]; time point 0): cocrystal; dissolution reached ([1]; within 1 minute): almost complete dissolution |
| COc1ccc(/C=C/C(=O)Nc2ccccc2C(=O)O)cc1OC.O=C(O)c1cc(O)ccc1O [1:1 Tranilast Gentisic Acid Cocrystal] |  |  |  |  |  | percentage of tranilast remaining (3 h): 99.6%; percentage of tranilast remaining (24 h): 99.8%; percentage of tranilast remaining (48 h): 99.9%; percentage of tranilast remaining [5]: 76.3% |
| COc1ccc(/C=C/C(=O)Nc2ccccc2C(=O)O)cc1OC.Nc1ccc(C(=O)O)cc1 | 76.2 | 99.8 | 98.2 | 99.7 | comparable photostability |  |
| COc1ccc(/C=C/C(=O)Nc2ccccc2C(=O)O)cc1OC.O=C(O)c1ccccc1O [1:1 Tranilast Salicyclic Acid Cocrystal] | 77.5 | 99.8 | 99.6 | 98.7 | comparable photostability |  |
| COc1ccc(/C=C/C(=O)Nc2ccccc2C(=O)O)cc1OC.NC(N)=O [1:1 Tranilast Urea Cocrystal] | 76.4 | 99.8 | 99.6 | 99.9 | comparable photostability |  |
| COc1ccc(/C=C/C(=O)Nc2ccccc2C(=O)O)cc1OC.O=C1NS(=O)(=O)c2ccccc21 [1:1 Tranilast Saccharin Cocrystal] | 71.0 | 99.8 | 99.6 | 99.1 | comparable photostability |  |
